Reference: article PMC8615111, “Phenolic Thiazoles with Antioxidant and Antiradical Activity. Synthesis, In Vitro Evaluation, Toxicity, Electrochemical Behavior, Quantum Studies and Antimicrobial Screening” (Antioxidants, 2021)
Like-named read-outs stand apart in the source and are kept apart here.

Tests used:
[1] = TEMPO scavenging by differential pulse voltammetry; details: 2 mM TEMPO, one hour incubation, 0.1 M HClO4, DPV
Protocol: (§1) The antioxidant properties were evaluated in terms of their activity against some free radicals, and other compounds reported in the literature, relevant for this purpose, such as: • ferric ions (Fe^3+)—used to test the reduction of the antioxidant character of the compounds; • DPPH˙ free radical– used to test the scavenging effect of the compounds on this radical; • hydrogen peroxide (H2O2)—used to test the scavenging effect of the synthesized molecules on this compound; • 2,2,6,6-tetramethylpiperidinyl-1-oxy (TEMPO)—used to test the scavenging effect of the synthesized molecules on this compound.
TEMPO (2,2,6,6-tetramethylpiperidine-N-oxyl) is a stable organic nitroxide radical that has been reported to scavenge carbon-centered radicals.
Differential pulse voltammetry (DPV) was then applied in order to evaluate the antioxidant effectiveness of the novel compounds through their ability to scavenge the free radical species.

[2] = Cyclic voltammetry of the compounds on graphite-based SPE; assay type: physicochemical; details: CV, 0.1 M HClO4, graphite-based SPE
Protocol: (§2) The evaluated compounds’ stock solutions used were prepared at a concentration of 5 mM. To test their redox properties, dilutions of 0.5 mM and 2 mM were prepared in 0.1 M HClO4 electrolyte (pH = 1.2). Screen-printed electrodes (SPEs; Metrohm DropSens, Oviedo, Spain) (planar electrodes) with graphite and gold working electrodes were used. Cyclic voltammetry (CV) and differential pulse voltammetry (DPV) were the electrochemical methods applied. The experimental conditions for each test are mentioned near the corresponding data (Appendix A).
In Figure 2, the cyclic voltammograms (CVs) for each of the compounds considered in this study, compared individually with the voltammogram obtained in the electrolyte (0.1 M HClO4), are presented. Thus, the oxidation/reduction peaks corresponding to the electrochemical transformations suffered by each compound can be observed in the potential range considered, in an acidic environment (low pH). From Figure 3, where the voltammograms of all eight compounds were presented together, a similarity is observed between 8a and 8b, and among the other compounds, whereas 5a and 5b can be noted as having the highest oxidation signals.

[3] = NO˙ radical scavenging assay (Griess reaction); assay type: biochemical; details: 100 µL of test solution 1 mg/mL in DMSO, 150 min, pH 7.4
Protocol: Scavenging of the NO˙ radical was performed according to some adapted protocols reported in the literature, based on the nitroprusside decomposition at physiological pH and colorimetric quantification of the resulted products using the Griess reaction.
Over 200 µL of 10 mM sodium nitroprusside, 100 µL of test solutions (1 mg/mL in DMSO), and 400 µL phosphate-buffered saline (PBS, pH = 7.4) were added. The mixture was then incubated at room temperature for 150 min on a rotating shaker (GFL Gesellschaft für Labortechnik, Burgwedel, Germany). After that, 1 mL of sulfanilic acid 0.33% in 20% acetic acid was added and after 5 min, 1 mL of naphthylethylenediamine […] 0.1% was added to all test tubes. After 30 min, the absorbance of the sample, given by the chromophore (azo dye) formed during the diazotization of nitrite ions resulting from decomposition of sodium nitroprusside with sulfanilic acid and coupled with naphthylethylenediamine, was measured at 546 nm. The NO˙ radical scavenging activity of the tested compounds was calculated using Equation (3):(3) NO˙ scavenging (%)=control absorbance−sample absorbance/control absorbance×100

[4] = Ferric ions (Fe^3+) reducing antioxidant power by cyclic voltammetry
Protocol: as §2, §1
This method is based on the evaluation of the influence of the compound measured by the direct reduction of Fe[(CN)6]^3− to […]. This assay is based on the reduction of Fe^3+ to Fe^2+ due to the action of antioxidants. Based on the electrochemical behavior of the studied compounds, the interaction of Fe^3+ was followed by cyclic voltammetry (CV) via the possible changes of redox peaks characteristic for Fe^3+/Fe^2+ transition after the interaction with antioxidants (if any).
From the voltammogram of potassium ferricyanide it can be observed that the one-electron transfer process Fe^3+/Fe^2+ occurs at 0.247 V/ 0.150 V in acidic media (red) (Figure A1; Table A1).
Each compound presents its characteristic peaks (blue line in each figure).

C. albicans ATCC 102310 = experiment: Antifungal activity, modified microdilution; assay type: cell-based; details: Candida albicans, ATCC102310
Protocol: For evaluating the antimicrobial activity of the compounds, […] aerobic microbial strains were used: S. aureus ATCC 25923, S. pyogenes ATCC 19615, P. aeruginosa ATCC 27853, S. enterica ISM 83/37, S. typhimurium ATCC 14028, E. coli ATCC 8739, E. coli ATCC 25922, and C. albicans ATCC 102310 obtained from Food Biotechnology Laboratory, Life Sciences Institute, University of Agricultural Sciences, and Veterinary Medicine Cluj Napoca, where the experiment was performed. The antimicrobial activity of the compounds was determined using a modified microdilution technique, and the followed protocol was previously reported.
The antimicrobial activity of the final compounds, against seven aerobic microbial strains (S. aureus ATCC 25923, S. pyogenes ATCC 19615, P. aeruginosa ATCC 27853, S. enterica ISM 83/37, S. typhimurium ATCC 14028, E. coli ATCC 8739, E. coli ATCC 25922), and a fungal strain (C. albicans ATCC 102310), was determined using a modified microdilution technique.
The results of the antimicrobial activity evaluation of the compounds, in comparison to norfloxacin and chloramphenicol used as standard antibiotics and fluconazole used as reference antifungal, are depicted in Table 10.

Fe^2+ chelation assay = assay type: biochemical
Protocol: The protocol used for assessing Fe^2+ chelating capacity of the compounds was adapted from a report of Benzie and Strain and previously reported by our group. The iron(II) chelation ability of compounds was calculated using Equation (7):(7) iron chelation (%)=control absorbance−sample absorbance/control absorbance×100
The chelating potential for the ferrous ions of the new compounds was determined, based on their competition for Fe^2+ with ferrozine.

[5] = compound 0.5 mM + Fe^3+/Fe^2+ (0.5 mM potassium ferricyanide), 1st Eox column
[6] = compound 0.5 mM + Fe^3+/Fe^2+ (0.5 mM potassium ferricyanide), 1st Iox column
[7] = compound + Fe^3+/Fe^2+, 1st Ered
[8] = compound + Fe^3+/Fe^2+, 1st Ired
[9] = compound + Fe^3+/Fe^2+, 2nd Eox
[10] = compound + Fe^3+/Fe^2+, 2nd Ered column
[11] = compound + Fe^3+/Fe^2+, 2nd Iox column
[12] = compound + Fe^3+/Fe^2+, 2nd Ired
[13] = compound + Fe^3+/Fe^2+, 3rd Iox column
[14] = compound + Fe^3+/Fe^2+, 5th Eox
[15] = compound + Fe^3+/Fe^2+, 5th Iox column
[16] = compound alone 0.5 mM in 0.1 M HClO4, 2nd Eox
[17] = compound alone 0.5 mM in 0.1 M HClO4, 2nd Ered column
[18] = compound alone 0.5 mM in 0.1 M HClO4, 2nd Iox column
[19] = compound alone 0.5 mM in 0.1 M HClO4, 2nd Ired
[20] = compound alone 0.5 mM in 0.1 M HClO4, 3rd Eox column
[21] = compound alone 0.5 mM in 0.1 M HClO4, 3rd Iox column
[22] = compound + Fe^3+/Fe^2+, 3rd Eox column

SMILES	oxidation signal for TEMPO after incubation with the compound [1]	Eox (V) ([2]; 2nd oxidation peak)	Iox (μA) ([2]; 2nd oxidation peak)	Eox (V) ([2]; 3rd oxidation peak)	Iox (μA) ([2]; 3rd oxidation peak)	Ered (V) ([2]; 3rd reduction peak)	Ired (μA) ([2]; 3rd reduction peak)	% of NO˙ Scavenged [3]	Eox (V) [4, 5]	Iox (μA) [4, 6]	Ered (V) [4, 7]	Ired (μA) [4, 8]	Eox (V) [4, 9]	Ered (V) [4, 10]	Iox (μA) [4, 11]	Ired (μA) [4, 12]	Iox (μA) [4, 13]	Iox (μA) [4, 18]	Chelation Capacity (%), ferrous ions (Fe^2+ chelation assay; 150 µg/mL)	Chelation Capacity (%), ferrous ions (Fe^2+ chelation assay; 200 µg/mL)	also measured
C/C(=N\Nc1nc(C)cs1)c1ccc(O)cc1O [Compound 5a, Dihydroxy-Phenyl-Thiazol-Hydrazinium chloride]	both the signal shift to higher oxidation potentials and its decrease	0.384 V	50.85 μA	0.632 V	19.21 μA	0.256 V	−2.17 μA	36.26%	0.152 V	3.69 μA	0.091 V	−7.33 μA	0.308 V	0.323 V	16.21 μA	−0.99 μA	4.14 μA	8.83 μA	11.17%	21.69%	Ered (V) ([2]; 1st reduction peak): −0.075 V; Ired (μA) ([2]; 1st reduction peak): −6.62 μA; Eox (V) [4, 14]: 0.903 V; Iox (μA) [4, 15]: 3.82 μA; Eox (V) [4, 16]: 0.308 V; Ered (V) [4, 17]: 0.318 V; Ired (μA) [4, 19]: −1.23 μA; Eox (V) [4, 20]: 0.573 V; Iox (μA) [4, 21]: 5.23 μA; Eox (V) ([4]; compound alone 0.5 mM in 0.1 M HClO4, 5th Eox): 0.997 V; Iox (μA) ([4]; compound alone 0.5 mM in 0.1 M HClO4, 5th Iox column): 9.78 μA; MIC (C. albicans ATCC 102310): > 100 µg/mL
Cc1csc(N/N=C/c2ccc(O)cc2O)n1.Cl [Compound 5b, (E)-2-(2,4-dihydroxybenzylidene)-1-(4-methylthiazol-2-yl)hydrazin-1-ium chloride]	both the signal shift to higher oxidation potentials and its decrease	0.425 V	69.35 μA	0.632 V	5.87 μA	0.286 V	−2.86 μA	35.63%	0.152 V	5.57 μA	0.093 V	−8.66 μA	0.342 V	0.323 V	22.3 μA	−1.52 μA	1.20 μA	15.68 μA	18.42%	31.33%	Ered (V) ([2]; 2nd reduction peak): 0.085 V; Ired (μA) ([2]; 2nd reduction peak): −0.68 μA; Eox (V) [4, 22]: 0.505 V; Eox (V) ([4]; compound + Fe^3+/Fe^2+, 4th Eox column): 0.506 V; Iox (μA) ([4]; compound + Fe^3+/Fe^2+, 4th Iox column): 8.68 μA; Eox (V) [4, 14]: 0.806 V; Iox (μA) [4, 15]: 8.68 μA; Eox (V) [4, 16]: 0.355 V; Ered (V) [4, 17]: 0.327 V; Ired (μA) [4, 19]: −1.56 μA; MIC (C. albicans ATCC 102310; C. albicans ATCC 102310, read-out: MIC): > 100 µg/mL; Chelation Capacity (%), ferrous ions (Fe^2+ chelation assay; 50 µg/mL): 1.18%; Chelation Capacity (%), ferrous ions (Fe^2+ chelation assay; 100 µg/mL): 8.95%
Br.C/C(=N\Nc1nc(-c2ccccc2)cs1)c1ccc(O)cc1O [Compound 6a, (E)-2-(1-(2,4-dihydroxyphenyl)ethylidene)-1-(4-phenylthiazol-2-yl)hydrazin-1-ium bromide]	does not decrease	0.418 V	22.48 μA	0.621 V	15.03 μA	0.379 V	−1.19 μA	20.58%			0.142 V	−5.88 μA	0.223 V		2.74 μA		3.82 μA	3.04 μA	14.50%	25.03%	Eox (V) ([2]; 1st oxidation peak): 0.298 V; Iox (μA) ([2]; 1st oxidation peak): 10.73 μA; Ered (V) ([2]; 2nd reduction peak): 0.181 V; Ired (μA) ([2]; 2nd reduction peak): −6.84 μA; Eox (V) [4, 22]: 0.424 V; Eox (V) [4, 20]: 0.586 V; Iox (μA) [4, 21]: 6.79 μA; MIC (C. albicans ATCC 102310): > 100 µg/mL; Chelation Capacity (%), ferrous ions (Fe^2+ chelation assay; 50 µg/mL): 0.07%; Chelation Capacity (%), ferrous ions (Fe^2+ chelation assay; 100 µg/mL): 7.14%
